Measured values: patent publication EP1019392B1, “TRICYCLIC AMIDES USEFUL FOR INHIBITION OF G-PROTEIN FUNCTION AND FOR TREATMENT OF PROLIFERATIVE DISEASES” (SCHERING CORPORATION, priority 1995, dated 1997)
Like-named read-outs stand apart in the source and are kept apart here.

What was measured:
Assay type in all cases: cell-based
[1] = tested on: T24-BAG4 human bladder carcinoma cells expressing an activated H-ras gene; assay: Cell Mat Assay, T24 tumor cells; details: Homo sapiens, read-out: Tumor (T-24) IC50
[2] = tested on: Normal human HEPM fibroblasts; assay: Cell Mat Assay, normal cell mat; details: Homo sapiens, Fibroblast, normal monolayer
[3] = tested on: SW620-BAG human colon carcinoma cells expressing an activated K-ras gene; assay: Cell Mat Assay, SW620 tumor cells
[4] = tested on: Ras-CVLS processing in COS monkey kidney cells; assay: COS cell assay: inhibition of Ras-CVLS processing (Western blot)
[5] = tested on: DLD-1-BAG human colon carcinoma cells expressing as activated K-ras gene; assay: Cell Mat Assay, DLD-1 tumor cells
[6] = Homo sapiens, SW-620, Mat assay

Question: With `O=C(Cc1cc[n+]([O-])cc1)N1CCC(=C2c3ncc(Br)cc3CCc3cc(Cl)cc(Br)c32)CC1` (racemic) [Example 7] as the compound, how does the IC50 [1] read?
Answer: < 1.6 µM

Question: And the IC50 [2]?
Answer: > 25 µM

Question: What about the IC50 [3, 6] of the same compound?
Answer: 6.25 µM

Question: What about the IC50 ([4]; Primates, COS) of the same compound?
Answer: < 0.25 µM

Question: `NC(=O)N1CCC(CC(=O)N2CCC(C3c4ccc(Cl)c(Br)c4CCc4cc(Br)cnc43)CC2)CC1` (single isomer, unassigned) [Example 13] was tested. Which IC50 [1] did it give?
Answer: < 1.6 µM

Question: What about the IC50 [4] of the same compound?
Answer: 0.42 µM

Question: How did the IC50 [1] turn out when `O=C(Cc1cc[n+]([O-])cc1)N1CCC(C2c3ccc(Cl)c(Br)c3CCc3cc(Br)cnc32)CC1` (single isomer, unassigned) [Example 14A] was run?
Answer: < 1.6 µM

Question: What about the IC50 [2] of the same compound?
Answer: > 25 µM

Question: What about the IC50 ([5]; Homo sapiens, DLD-1, Mat assay) of the same compound?
Answer: 6.25 µM

Question: What about the IC50 [3, 6] of the same compound?
Answer: 12.5 µM

Question: What about the IC50 [4] of the same compound?
Answer: 0.48 µM

Question: `NC(=O)N1CCC(CC(=O)N2CCC(C3c4ncc(Br)cc4CCc4cc(Cl)cc(Cl)c43)CC2)CC1` (single isomer, unassigned) [Example 18] was tested. Which IC50 ([4]; Primates, COS) did it give?
Answer: 0.025 µM

Question: What does the source list for `O=C(Cc1cc[n+]([O-])cc1)N1CCC(=C2c3ccc(Cl)c(Br)c3CCc3cc(Br)cnc32)CC1` [Example 2]?
Answer: IC50 [1]: < 1.6 µM; IC50 [2]: > 25 µM; IC50 ([5]; Homo sapiens, DLD-1, Mat assay): 6.25 µM; IC50 [3, 6]: 6.25 µM

Question: Which results are given for `O=C(Cc1cc[n+]([O-])cc1)N1CCN([C@H]2c3ccc(Cl)c(Br)c3CCc3cc(Br)cnc32)CC1` [Example 5]?
Answer: IC50 [1]: < 1.6 µM; IC50 [2]: > 25 µM; IC50 ([5]; Homo sapiens, DLD-1, Mat assay): 3.1 µM; IC50 [3, 6]: 6.25 µM

Question: Which results are given for `O=C(Cc1cc[n+]([O-])cc1)N1CCC([C@H]2c3ncc(Br)cc3CCc3cc(Cl)cc(Br)c32)CC1` [Example 9]?
Answer: IC50 [1]: < 1.6 µM; IC50 [2]: > 25 µM; IC50 ([5]; Homo sapiens, DLD-1, Mat assay): < 1.6 µM; IC50 [3, 6]: 6.25 µM; IC50 ([4]; Primates, COS): 0.01 µM

Question: With `O=C(Cc1cc[n+]([O-])cc1)N1CCN([C@H]2c3ncc(Br)cc3CCc3cc(Cl)cc(Br)c32)CC1` [Example 11A] as the compound, how does the IC50 [1] read?
Answer: < 1.6 µM

Question: What about the IC50 [2] of the same compound?
Answer: > 25 µM

Question: What about the IC50 ([5]; Mat assay) of the same compound?
Answer: < 1.6 µM

Question: What about the IC50 ([3]; Mat assay) of the same compound?
Answer: > 6.25 µM

Question: And the IC50 ([4]; Primates, COS)?
Answer: < 0.025 µM

Question: `O=C(Cc1cc[n+]([O-])cc1)N1CCN([C@@H]2c3ccc(Cl)cc3CCc3cc(Br)cnc32)CC1` [Example 16A] was tested. Which IC50 ([4]; Primates, COS) did it give?
Answer: 0.5 µM

Question: Which results are given for `O=C(Cc1cc[n+]([O-])cc1)N1CCN([C@H]2c3ccc(Cl)cc3CCc3cc(Br)cnc32)CC1` [Example 16B]?
Answer: IC50 [1]: < 1.6 µM; IC50 [2]: > 25 µM; IC50 ([5]; Homo sapiens, DLD-1, Mat assay): 6.25 µM; IC50 [3, 6]: 25 µM; IC50 ([4]; Primates, COS): 0.125 µM
